Read-outs that look alike come from different tables or passages of the source.
Experiments:
PI3Kα = PI3Kα (Homo sapiens, UniProt P42336); experiment: PI3K isoform selectivity, p110α; assay type: biochemical; settings: for IC50: mean of at least two experiments
PI3Kδ [1] = target: T1, PI3Kδ (Homo sapiens, UniProt O00329); experiment: PI3Kδ inhibitory activity; assay type: biochemical; settings: mean of at least two experiments; for inhibition at 0.1 µM: at the concentration of 100 nM
PI3Kγ = PI3Kγ (Homo sapiens, UniProt P48736); experiment: PI3K isoform selectivity, p110γ; assay type: biochemical; settings: for IC50: mean of at least two experiments
PI3Kγ, sequence (P48736 whole entry, species assumed, canonical isoform): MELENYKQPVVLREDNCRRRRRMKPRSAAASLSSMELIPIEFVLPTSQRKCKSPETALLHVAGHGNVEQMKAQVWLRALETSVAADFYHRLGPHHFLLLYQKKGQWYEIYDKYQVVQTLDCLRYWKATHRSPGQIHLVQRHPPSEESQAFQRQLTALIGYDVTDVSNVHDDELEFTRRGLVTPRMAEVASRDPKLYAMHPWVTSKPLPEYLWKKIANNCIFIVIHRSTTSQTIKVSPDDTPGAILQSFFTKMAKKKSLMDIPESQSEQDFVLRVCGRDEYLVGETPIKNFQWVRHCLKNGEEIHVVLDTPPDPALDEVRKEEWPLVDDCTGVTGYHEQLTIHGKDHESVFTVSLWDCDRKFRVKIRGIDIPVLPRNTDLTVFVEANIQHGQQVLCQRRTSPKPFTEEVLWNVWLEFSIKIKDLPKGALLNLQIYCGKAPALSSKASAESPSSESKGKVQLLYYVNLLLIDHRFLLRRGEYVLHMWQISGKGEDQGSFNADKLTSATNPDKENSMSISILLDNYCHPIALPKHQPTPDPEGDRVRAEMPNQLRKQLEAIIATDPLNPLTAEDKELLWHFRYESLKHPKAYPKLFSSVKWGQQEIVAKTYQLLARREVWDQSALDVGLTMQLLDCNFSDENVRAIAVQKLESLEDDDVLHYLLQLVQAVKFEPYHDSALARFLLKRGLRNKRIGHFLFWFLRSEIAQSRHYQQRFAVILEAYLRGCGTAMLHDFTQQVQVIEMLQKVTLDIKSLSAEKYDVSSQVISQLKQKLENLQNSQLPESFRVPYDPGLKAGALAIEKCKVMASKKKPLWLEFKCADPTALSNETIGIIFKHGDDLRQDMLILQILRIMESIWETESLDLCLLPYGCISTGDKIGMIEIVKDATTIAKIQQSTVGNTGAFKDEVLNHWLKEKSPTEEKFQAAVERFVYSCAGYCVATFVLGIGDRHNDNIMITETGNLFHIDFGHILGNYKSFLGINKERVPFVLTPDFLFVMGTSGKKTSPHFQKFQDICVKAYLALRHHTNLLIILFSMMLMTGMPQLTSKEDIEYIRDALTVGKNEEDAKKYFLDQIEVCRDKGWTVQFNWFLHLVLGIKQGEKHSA

PI3Kβ = PI3Kβ (Homo sapiens, UniProt P42338); experiment: PI3K isoform selectivity, p110β; assay type: biochemical; settings: for IC50: mean of at least two experiments
PI3Kβ, sequence (P42338 whole entry, species assumed, canonical isoform): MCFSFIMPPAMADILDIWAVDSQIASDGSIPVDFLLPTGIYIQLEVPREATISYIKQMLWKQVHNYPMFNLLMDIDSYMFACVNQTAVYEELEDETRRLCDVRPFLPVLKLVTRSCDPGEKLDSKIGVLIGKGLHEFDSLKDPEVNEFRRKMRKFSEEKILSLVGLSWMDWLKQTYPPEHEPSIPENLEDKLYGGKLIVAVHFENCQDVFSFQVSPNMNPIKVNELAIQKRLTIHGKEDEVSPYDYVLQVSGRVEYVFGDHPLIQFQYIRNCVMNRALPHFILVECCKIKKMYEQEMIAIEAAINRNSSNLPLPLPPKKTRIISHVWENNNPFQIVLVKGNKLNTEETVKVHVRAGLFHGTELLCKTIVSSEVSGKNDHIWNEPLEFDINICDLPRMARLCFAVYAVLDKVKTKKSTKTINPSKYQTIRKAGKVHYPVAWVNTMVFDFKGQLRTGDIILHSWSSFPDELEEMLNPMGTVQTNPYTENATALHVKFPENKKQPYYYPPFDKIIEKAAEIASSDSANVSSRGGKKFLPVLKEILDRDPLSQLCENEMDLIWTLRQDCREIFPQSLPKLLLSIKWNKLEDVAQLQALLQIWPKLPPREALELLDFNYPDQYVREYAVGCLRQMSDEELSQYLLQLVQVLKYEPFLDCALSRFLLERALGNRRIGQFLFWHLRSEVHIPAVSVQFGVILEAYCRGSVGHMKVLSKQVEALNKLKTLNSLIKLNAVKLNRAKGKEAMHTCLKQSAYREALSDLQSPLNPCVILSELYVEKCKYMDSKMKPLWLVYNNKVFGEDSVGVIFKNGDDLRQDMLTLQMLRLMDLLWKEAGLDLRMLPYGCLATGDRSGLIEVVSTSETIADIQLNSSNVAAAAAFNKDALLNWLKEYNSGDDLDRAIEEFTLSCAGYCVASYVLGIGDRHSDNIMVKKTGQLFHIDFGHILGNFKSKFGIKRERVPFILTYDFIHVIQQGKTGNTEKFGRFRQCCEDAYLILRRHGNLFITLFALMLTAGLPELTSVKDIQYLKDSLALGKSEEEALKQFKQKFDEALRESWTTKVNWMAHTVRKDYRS
PI3Kβ, sequence (P27986 whole entry partner, species assumed, canonical isoform): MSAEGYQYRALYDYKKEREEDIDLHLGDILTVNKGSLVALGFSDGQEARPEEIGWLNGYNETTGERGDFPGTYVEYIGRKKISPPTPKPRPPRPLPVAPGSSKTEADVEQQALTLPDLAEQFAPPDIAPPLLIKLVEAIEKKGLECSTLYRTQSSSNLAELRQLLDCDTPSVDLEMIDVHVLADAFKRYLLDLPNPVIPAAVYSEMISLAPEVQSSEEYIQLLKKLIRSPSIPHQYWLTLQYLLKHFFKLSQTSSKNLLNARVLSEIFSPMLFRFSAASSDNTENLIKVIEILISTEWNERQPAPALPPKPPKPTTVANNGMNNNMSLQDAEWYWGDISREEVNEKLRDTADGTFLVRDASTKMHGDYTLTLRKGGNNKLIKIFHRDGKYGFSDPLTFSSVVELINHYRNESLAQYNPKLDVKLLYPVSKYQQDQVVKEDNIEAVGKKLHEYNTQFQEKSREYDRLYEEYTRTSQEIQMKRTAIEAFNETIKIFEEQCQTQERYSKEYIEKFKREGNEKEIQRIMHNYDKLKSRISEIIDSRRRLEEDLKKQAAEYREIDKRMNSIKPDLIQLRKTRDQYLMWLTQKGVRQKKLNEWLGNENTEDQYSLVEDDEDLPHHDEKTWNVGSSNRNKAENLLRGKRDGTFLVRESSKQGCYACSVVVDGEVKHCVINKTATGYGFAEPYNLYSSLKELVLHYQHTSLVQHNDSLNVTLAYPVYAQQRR

SU-DHL-6 = experiment: Anti-proliferative activity, CCK-8 method; assay type: cell-based; settings: Homo sapiens, mean of at least two experiments
RPMI-8226 = experiment: Anti-proliferative activity, MTT reduction method; assay type: cell-based; settings: Homo sapiens, mean of at least two experiments
Ramos = experiment: Anti-proliferative activity, MTT reduction method; assay type: cell-based; settings: Homo sapiens, mean of at least two experiments
Raji = experiment: Anti-proliferative activity, MTT reduction method; assay type: cell-based; settings: Homo sapiens, mean of at least two experiments
PI3Kδ [2] = target: T1, PI3Kδ; settings: cited from earlier work
[3] = Table 3 isoform selectivity, read-out: p110δ IC50

T1 sequence (O00329 whole entry, canonical isoform): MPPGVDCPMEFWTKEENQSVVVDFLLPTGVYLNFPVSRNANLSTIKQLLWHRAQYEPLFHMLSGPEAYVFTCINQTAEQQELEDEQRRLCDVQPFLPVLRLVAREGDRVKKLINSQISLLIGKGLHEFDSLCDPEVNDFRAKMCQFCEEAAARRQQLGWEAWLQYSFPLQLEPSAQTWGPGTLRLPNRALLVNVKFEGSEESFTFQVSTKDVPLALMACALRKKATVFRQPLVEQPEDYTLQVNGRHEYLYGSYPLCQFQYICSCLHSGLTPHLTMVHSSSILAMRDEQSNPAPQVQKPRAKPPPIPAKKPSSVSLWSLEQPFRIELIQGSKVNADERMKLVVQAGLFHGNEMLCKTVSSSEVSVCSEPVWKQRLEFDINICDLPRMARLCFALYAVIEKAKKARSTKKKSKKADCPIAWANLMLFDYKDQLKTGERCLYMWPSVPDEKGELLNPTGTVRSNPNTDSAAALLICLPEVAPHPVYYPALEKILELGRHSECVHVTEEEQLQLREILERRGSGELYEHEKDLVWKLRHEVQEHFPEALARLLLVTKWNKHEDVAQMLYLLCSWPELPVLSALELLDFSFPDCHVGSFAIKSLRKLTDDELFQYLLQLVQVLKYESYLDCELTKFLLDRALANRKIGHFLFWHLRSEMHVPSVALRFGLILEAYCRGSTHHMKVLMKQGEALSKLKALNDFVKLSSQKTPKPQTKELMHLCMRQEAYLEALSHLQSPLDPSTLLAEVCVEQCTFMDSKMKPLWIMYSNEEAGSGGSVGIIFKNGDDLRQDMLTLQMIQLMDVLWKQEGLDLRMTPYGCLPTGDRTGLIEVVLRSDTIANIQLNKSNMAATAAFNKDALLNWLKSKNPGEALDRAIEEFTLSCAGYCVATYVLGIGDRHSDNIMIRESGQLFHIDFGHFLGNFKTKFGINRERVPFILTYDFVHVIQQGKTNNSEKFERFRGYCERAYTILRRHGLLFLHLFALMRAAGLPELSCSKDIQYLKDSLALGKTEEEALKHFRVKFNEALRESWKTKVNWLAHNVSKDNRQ
T1 sequence (P27986 whole entry partner, canonical isoform): as the sequence (P27986 whole entry partner, species assumed, canonical isoform) above
PI3Kα, sequence (P42336 whole entry, species assumed, canonical isoform): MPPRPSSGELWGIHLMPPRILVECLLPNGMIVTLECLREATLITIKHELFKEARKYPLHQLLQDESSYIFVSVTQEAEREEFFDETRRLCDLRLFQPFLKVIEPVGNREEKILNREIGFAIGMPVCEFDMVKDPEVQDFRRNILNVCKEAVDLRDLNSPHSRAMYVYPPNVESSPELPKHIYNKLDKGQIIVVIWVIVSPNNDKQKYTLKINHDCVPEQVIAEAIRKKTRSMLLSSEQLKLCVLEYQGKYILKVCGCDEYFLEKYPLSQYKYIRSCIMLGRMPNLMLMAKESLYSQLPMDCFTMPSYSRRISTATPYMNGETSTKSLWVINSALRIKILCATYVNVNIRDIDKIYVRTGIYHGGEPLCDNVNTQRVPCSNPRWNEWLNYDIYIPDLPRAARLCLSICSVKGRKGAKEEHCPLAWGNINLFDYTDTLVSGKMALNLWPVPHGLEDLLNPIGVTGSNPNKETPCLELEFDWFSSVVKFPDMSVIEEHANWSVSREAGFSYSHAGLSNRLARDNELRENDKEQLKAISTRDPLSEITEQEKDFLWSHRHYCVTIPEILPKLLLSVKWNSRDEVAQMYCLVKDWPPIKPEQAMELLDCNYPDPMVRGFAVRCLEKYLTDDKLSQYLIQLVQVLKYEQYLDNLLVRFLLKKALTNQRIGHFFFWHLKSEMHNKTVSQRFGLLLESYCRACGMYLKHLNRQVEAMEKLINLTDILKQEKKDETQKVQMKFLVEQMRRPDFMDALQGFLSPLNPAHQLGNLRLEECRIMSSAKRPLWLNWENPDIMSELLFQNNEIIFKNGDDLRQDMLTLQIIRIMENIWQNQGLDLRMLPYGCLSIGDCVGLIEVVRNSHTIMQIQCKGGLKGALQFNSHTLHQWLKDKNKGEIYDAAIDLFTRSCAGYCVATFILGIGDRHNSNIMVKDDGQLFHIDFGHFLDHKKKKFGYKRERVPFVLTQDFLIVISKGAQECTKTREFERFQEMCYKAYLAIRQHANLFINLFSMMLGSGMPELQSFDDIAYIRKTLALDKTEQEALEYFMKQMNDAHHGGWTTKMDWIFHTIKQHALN
PI3Kα, sequence (P27986 whole entry partner, species assumed, canonical isoform): as the sequence (P27986 whole entry partner, species assumed, canonical isoform) above

With COc1ccc(-c2ccc3ncnc(N[C@H]4CCCN(C(=O)C5CCC5)C4)c3c2)cn1 [Compound 14c] the “PI3Kδ selectivity over PI3Kα” value (PI3Kα) was 15 fold, the IC50 (PI3Kα) was 58.9 nM and the IC50 (PI3Kδ [1]; [3]) was 3.9 nM. The inhibition at 0.1 µM (PI3Kδ [1]) was 91%, the IC50 (PI3Kδ [1]; read-out: PI3Kδ IC50) was 3.9 nM and the “PI3Kδ selectivity over PI3Kγ” value (PI3Kγ) was 31 fold. The IC50 (PI3Kγ) was 121 nM, the “PI3Kδ selectivity over PI3Kβ” value (PI3Kβ) was 96 fold and the IC50 (PI3Kβ) was 376 nM. It also gave an IC50 (SU-DHL-6) of 1490 nM.

With COc1ccc(-c2ccc3ncnc(O[C@H]4CCN(C(=O)C5CCC5)C4)c3c2)cn1 [Compound 12c] the inhibition at 0.1 µM (PI3Kδ [1]) was 96% and the IC50 (PI3Kδ [1]; read-out: PI3Kδ IC50) was 6.1 nM.

Molecule COc1ccc(-c2ccc3ncnc(O[C@H]4CCN(C(=O)OC(C)(C)C)C4)c3c2)cn1 [Compound 12a] has an inhibition at 0.1 µM (PI3Kδ [1]) of 79%.

COc1ccc(-c2ccc3ncnc(N[C@H]4CCCN(C(=O)C5CCCC5)C4)c3c2)cn1 [Compound 14d] gave an inhibition at 0.1 µM (PI3Kδ [1]) of 91% and an IC50 (PI3Kδ [1]; read-out: PI3Kδ IC50) of 8.7 nM.

In the case of CC[C@H](Nc1ncnc2[nH]cnc12)c1nc2cccc(F)c2c(=O)n1-c1ccccc1 [Compound 1, idelalisib, reference compound], the IC50 (RPMI-8226) is reported as 5490 nM, the inhibition at 0.1 µM (PI3Kδ [1]) is reported as 96% and the IC50 (Ramos) is reported as > 10000 nM. The IC50 (Raji) was 9950 nM and the IC50 (SU-DHL-6) was 650 nM.

With COc1ccc(-c2ccc3ncnc(NC4CCN(C(=O)C5CC5)CC4)c3c2)cn1 [Compound 16b] the inhibition at 0.1 µM (PI3Kδ [1]) was 70%.

With COc1ccc(-c2ccc3ncnc(O[C@H]4CCN(C(=O)C5CC5)C4)c3c2)cn1 [Compound 12b] the inhibition at 0.1 µM (PI3Kδ [1]) was 90% and the IC50 (PI3Kδ [1]; read-out: PI3Kδ IC50) was 9.3 nM.

Molecule COc1ccc(-c2ccc3ncnc(O[C@H]4CCN(C(=O)C(C)(C)C)C4)c3c2)cn1 [Compound 12e] has an inhibition at 0.1 µM (PI3Kδ [1]) of 53%.

COc1ccc(-c2ccc3ncnc(N[C@H]4CCCN(C(=O)OC(C)(C)C)C4)c3c2)cn1 [Compound 14a] showed an inhibition at 0.1 µM (PI3Kδ [1]) of 51%.

COc1ccc(-c2ccc3ncnc(NC4CCN(C(=O)OC(C)(C)C)CC4)c3c2)cn1 [Compound 16a] gave an inhibition at 0.1 µM (PI3Kδ [1]) of 72%.

COc1ccc(-c2ccc3ncnc(NC4CCN(C(=O)C5CCOCC5)CC4)c3c2)cn1 [Compound 16c] gave an inhibition at 0.1 µM (PI3Kδ [1]) of 48%.

Molecule COc1ccc(-c2ccc3ncnc(N[C@H]4CCCN(C(=O)C5CCOCC5)C4)c3c2)cn1 [Compound 14e] has an inhibition at 0.1 µM (PI3Kδ [1]) of 88% and an IC50 (PI3Kδ [1]; read-out: PI3Kδ IC50) of 5.2 nM.

In the case of C[C@H](Nc1nc(N)nc(N)c1C#N)c1nc2cccc(F)c2c(=O)n1-c1cc(F)cc(F)c1 [Compound 3], the IC50 (PI3Kδ [2]; idelalisib-derived analogues) is listed as 2.2 nM.

In the case of COc1ccc(-c2ccc3ncnc(N[C@H]4CCCN(C(=O)C(C)(C)C)C4)c3c2)cn1 [Compound 14f], the inhibition at 0.1 µM (PI3Kδ [1]) is reported as 54%.

In the case of COc1ccc(-c2ccc3ncnc(O[C@H]4CCN(C(=O)C5CCOCC5)C4)c3c2)cn1 [Compound 12d], the “PI3Kδ selectivity over PI3Kα” value (PI3Kα) is reported as 11 fold, the IC50 (PI3Kα) is reported as 50.4 nM and the IC50 (RPMI-8226) is reported as 440 nM. It also gave an IC50 (PI3Kδ [1]; [3]) of 4.9 nM, an inhibition at 0.1 µM (PI3Kδ [1]) of 98% and an IC50 (PI3Kδ [1]; read-out: PI3Kδ IC50) of 4.9 nM. The IC50 (Ramos) was 1340 nM, the “PI3Kδ selectivity over PI3Kγ” value (PI3Kγ) was 103 fold and the IC50 (PI3Kγ) was 468 nM. The IC50 (Raji) was 9810 nM, the “PI3Kδ selectivity over PI3Kβ” value (PI3Kβ) was 131 fold and the IC50 (PI3Kβ) was 592 nM. The IC50 (SU-DHL-6) was 3230 nM.

In the case of COc1ccc(-c2ccc3ncnc(N[C@H]4CCCN(C(=O)C5CC5)C4)c3c2)cn1 [Compound 14b], the “PI3Kδ selectivity over PI3Kα” value (PI3Kα) is reported as 12 fold, the IC50 (PI3Kα) is reported as 36.6 nM and the IC50 (RPMI-8226) is reported as 8660 nM. For the same molecule, the IC50 (PI3Kδ [1]; [3]) was 3 nM, the inhibition at 0.1 µM (PI3Kδ [1]) was 94% and the IC50 (PI3Kδ [1]; read-out: PI3Kδ IC50) was 3 nM. The IC50 (Ramos) was 1340 nM, the “PI3Kδ selectivity over PI3Kγ” value (PI3Kγ) was 34 fold and the IC50 (PI3Kγ) was 104 nM. For the same molecule, the IC50 (Raji) was 810 nM, the “PI3Kδ selectivity over PI3Kβ” value (PI3Kβ) was 105 fold and the IC50 (PI3Kβ) was 317 nM. The IC50 (SU-DHL-6) was 1040 nM.

In the case of COc1ncc(-c2ccc3ncnc(Nc4cccc(C(=O)N5CCOCC5)c4)c3c2)cc1C#N [Compound 8], the IC50 (PI3Kδ [2]; 4-anilinequinazoline) is given as 9.3 nM.

Molecule O=C(CCCCCCC(=O)Nc1ccccc1)NO [SAHA, vorinostat, reference compound] has an IC50 (RPMI-8226) of 660 nM.
